The text below walks through data of PubChem BioAssay AID248 (DTP/NCI, 2004).

The test system of the test is L1210 leukemia ip in BDF1 mice, survival T/C. Kind of test: NCI In Vivo Anticancer Drug Screen. Data for tumor model L1210 Leukemia (intraperitoneal) in B6D2F1 (BDF1) mice. To be noted: endpoint: mean survival time, higher = longer survival. In short, it runs like this:
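Antitumor effect is assessed in tumor-bearing animals. Survival in the compound arm is compared with a vehicle-dosed control arm and expressed as their quotient.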

[1] abbreviates: dose: 50.0 mg/kg/injection, schedule: Q01DX009 (ip), vehicle: Klucel (hydroxypropylcellulose) (HPC).
Where [2] appears, read: dose: 100.0 mg/kg/injection, schedule: Q01DX009 (ip), vehicle: Klucel (hydroxypropylcellulose) (HPC).
Where [3] appears, read: dose: 100.0 mg/kg/injection, schedule: Q04DX003 (ip), vehicle: Klucel (hydroxypropylcellulose) (HPC).
The mark [4] stands for this setting: dose: 200.0 mg/kg/injection, schedule: Q01DX009 (ip), vehicle: Klucel (hydroxypropylcellulose) (HPC).
Setting [5] is: dose: 200.0 mg/kg/injection, schedule: Q04DX003 (ip), vehicle: Klucel (hydroxypropylcellulose) (HPC).
Setting [6] is: dose: 50.0 mg/kg/injection, schedule: Q01DX001 (ip), vehicle: carboxymethylcellulose (CMC).
The mark [7] stands for this setting: dose: 100.0 mg/kg/injection, schedule: Q01DX001 (ip), vehicle: carboxymethylcellulose (CMC).
Setting [8] is: dose: 200.0 mg/kg/injection, schedule: Q01DX001 (ip), vehicle: carboxymethylcellulose (CMC).
[9] abbreviates: dose: 100.0 mg/kg/injection, schedule: Q01DX001 (ip), vehicle: saline.
Setting [10] is: dose: 200.0 mg/kg/injection, schedule: Q01DX001 (ip), vehicle: saline.

“And” between values parts separate entries of the source, which are not always exact repeats. Identical values can stand only once. Toxic doses and inconclusive results are not listed.

With `C#CCC(B1OCCO1)B1OCCO1`, the T/C is, setting by setting: (dose: 50.0 mg/kg/injection, schedule: Q01DX001 (ip), vehicle: Klucel (hydroxypropylcellulose) (HPC)) 97 % of control; (dose: 100.0 mg/kg/injection, schedule: Q01DX001 (ip), vehicle: Klucel (hydroxypropylcellulose) (HPC)) 90 % of control; (dose: 200.0 mg/kg/injection, schedule: Q01DX001 (ip), vehicle: Klucel (hydroxypropylcellulose) (HPC)) 100 % of control.

Consider `Brc1csc2ncccc12`, for which the T/C runs as follows: under setting [1], 102 % of control; under setting [2], 101 % of control; under setting [3], 97 % of control; under setting [4], 96 % of control; under setting [5], 100 % of control.

Consider `COc1ccc(/C(C#N)=C2C=C/C(=N/O)c3ccccc3\2)cc1`, for which the T/C under setting [6] is 92 % of control; the T/C under setting [7] is 92 % of control; the T/C under setting [8] was 87 % of control; the T/C (dose: 400.0 mg/kg/injection, schedule: Q01DX001 (ip), vehicle: carboxymethylcellulose (CMC)) is 89 % of control.

Take `CCCCNC(C)(C)COC(=O)/C=C/c1ccc(OCCCC)cc1`: the T/C reads like this: (dose: 50.0 mg/kg/injection, schedule: Q04DX003 (ip), vehicle: saline with Tween-80) 92 % of control; under setting [9], 104 % of control; (dose: 100.0 mg/kg/injection, schedule: Q01DX015 (ip), vehicle: saline) 86 % of control; (dose: 100.0 mg/kg/injection, schedule: Q04DX003 (ip), vehicle: saline with Tween-80) 94 % of control; under setting [10], 102 % of control; (dose: 200.0 mg/kg/injection, schedule: Q01DX015 (ip), vehicle: saline) 89 % of control. Besides, the T/C (dose: 200.0 mg/kg/injection, schedule: Q04DX003 (ip), vehicle: saline with Tween-80) was 105 % of control.

`O=C1/C(=N/O)CCc2ccccc21`: the T/C runs as follows: (dose: 50.0 mg/kg/injection, schedule: Q01DX009 (ip), vehicle: saline) 102 % of control; under setting [7], 103 % of control; (dose: 100.0 mg/kg/injection, schedule: Q01DX009 (ip), vehicle: saline) 103 % of control; under setting [8], 97 % of control.

Regarding `CC(C)C/C=N/Nc1ccnc(SCc2ccccc2)n1`, the T/C by setting is: (dose: 100.0 mg/kg/injection, schedule: Q04DX003 (ip), vehicle: DMSO) 95 % of control; (dose: 200.0 mg/kg/injection, schedule: Q04DX003 (ip), vehicle: DMSO) 103 % of control; (dose: 400.0 mg/kg/injection, schedule: Q04DX003 (ip), vehicle: DMSO) 95 % of control.

In the case of `O=C(O)C(O)C(F)(F)F` (stereo not given), the T/C was 102 % of control (dose: 31.0 mg/kg/injection, schedule: Q01DX Z (ip), vehicle: methylcellulose (MC)); 96 % of control (dose: 62.5 mg/kg/injection, schedule: Q01DX Z (ip), vehicle: methylcellulose (MC)); 100 % of control (dose: 125.0 mg/kg/injection, schedule: Q01DX Z (ip), vehicle: methylcellulose (MC)); 97 % of control (dose: 250.0 mg/kg/injection, schedule: Q01DX Z (ip), vehicle: methylcellulose (MC)).

`CCOC(=O)CCCCSCCCCC(=O)OCC`: the T/C (dose: 100.0 mg/kg/injection, schedule: Q01DX009 (ip), vehicle: saline with Tween-80) is 91 % of control; the T/C (dose: 200.0 mg/kg/injection, schedule: Q01DX009 (ip), vehicle: saline with Tween-80) was 101 % of control; the T/C (dose: 400.0 mg/kg/injection, schedule: Q01DX009 (ip), vehicle: saline with Tween-80) was 102 % of control.

`O=C(Nc1ccc(-c2nc3nc[nH]c(=O)c3[nH]2)cc1)c1cccc(S(=O)(=O)F)c1`: the T/C runs as follows: (dose: 100.0 mg/kg/injection, schedule: Q01DX001 (ip), vehicle: saline with Tween-80) 96 % of control; (dose: 200.0 mg/kg/injection, schedule: Q01DX001 (ip), vehicle: saline with Tween-80) 96 % of control; (dose: 400.0 mg/kg/injection, schedule: Q01DX001 (ip), vehicle: saline with Tween-80) 92 % of control.

On to `COC12C(CC3C4CC=C5CC(OC(C)=O)CCC5(C)C4CCC31C)C(c1ccccc1)=NN2c1ccccc1` (stereo not given), for which the T/C was 101 % of control (dose: 12.5 mg/kg/injection, schedule: Q04DX002 (ip), vehicle: Klucel (hydroxypropylcellulose) (HPC)); 104 % of control (dose: 25.0 mg/kg/injection, schedule: Q04DX002 (ip), vehicle: Klucel (hydroxypropylcellulose) (HPC)); 101 % of control (dose: 50.0 mg/kg/injection, schedule: Q04DX002 (ip), vehicle: Klucel (hydroxypropylcellulose) (HPC)).

For `CN(C(=O)Nc1ccccc1F)C1CCCCC1`, the T/C runs as follows: under setting [1], 101 % of control; under setting [2], 90 % of control; under setting [4], 96 % of control.

On to `N#CCCC[P+](c1ccccc1)(c1ccccc1)c1ccccc1`, for which the T/C by setting is: (dose: 75.0 mg/kg/injection, schedule: Q01DX001 (ip), vehicle: other) 97 % of control; (dose: 100.0 mg/kg/injection, schedule: Q04DX002 (ip), vehicle: Klucel (hydroxypropylcellulose) (HPC)) 98 % of control.

As to `CNC(=O)OCC1=C(OC)C(=O)C(OC)=CC1=O`, the T/C was 90 % of control (dose: 12.5 mg/kg/injection, schedule: Q01DX009 (ip), vehicle: other); 97 % of control (dose: 12.5 mg/kg/injection, schedule: Q04DX003 (ip), vehicle: other); 92 % of control (dose: 25.0 mg/kg/injection, schedule: Q01DX009 (ip), vehicle: other); 96 % of control (dose: 25.0 mg/kg/injection, schedule: Q04DX003 (ip), vehicle: other); 90 % of control (dose: 50.0 mg/kg/injection, schedule: Q01DX009 (ip), vehicle: other); 100 % of control (dose: 50.0 mg/kg/injection, schedule: Q04DX003 (ip), vehicle: other).

`Cc1ccc(NC(=O)N(CCCl)N=O)cc1`: the T/C (dose: 0.5 mg/kg/injection, schedule: Q01DX015 (ip), vehicle: carboxymethylcellulose (CMC)) was 103 % of control; the T/C (dose: 1.0 mg/kg/injection, schedule: Q01DX015 (ip), vehicle: carboxymethylcellulose (CMC)) was 107 % of control; the T/C (dose: 5.2 mg/kg/injection, schedule: Q01DX015 (ip), vehicle: carboxymethylcellulose (CMC)) is 169 % of control; the T/C (dose: 9.0 mg/kg/injection, schedule: Q01DX015 (ip), vehicle: carboxymethylcellulose (CMC)) is 165 % of control; the T/C (dose: 15.0 mg/kg/injection, schedule: Q01DX015 (ip), vehicle: carboxymethylcellulose (CMC)) was 206 % of control; the T/C (dose: 22.0 mg/kg/injection, schedule: Q01DX001 (ip), vehicle: carboxymethylcellulose (CMC)) was 161 % of control. Moreover, the T/C by setting is: (dose: 25.0 mg/kg/injection, schedule: Q01DX015 (ip), vehicle: carboxymethylcellulose (CMC)) 152 % of control; (dose: 33.0 mg/kg/injection, schedule: Q01DX001 (ip), vehicle: carboxymethylcellulose (CMC)) 152 % of control; under setting [6], 171 % of control and 197 % of control; (dose: 75.0 mg/kg/injection, schedule: Q01DX001 (ip), vehicle: carboxymethylcellulose (CMC)) 118 % of control; under setting [7], 86 % of control.

On to `CC12CCC(=O)C=C1CCCC2=O` (stereo not given), for which the T/C reads like this: (dose: 100.0 mg/kg/injection, schedule: Q04DX003 (ip), vehicle: saline) 95 % of control; (dose: 200.0 mg/kg/injection, schedule: Q04DX003 (ip), vehicle: saline) 101 % of control.

For the compound `CCCCN(CCCC)CC(O)c1cc(-c2ccc(Cl)c(Cl)c2)nc2c(Cl)cc(Cl)cc12` (stereo not given), the T/C was 103 % of control under setting [9]; 94 % of control under setting [10]; 94 % of control (dose: 400.0 mg/kg/injection, schedule: Q01DX001 (ip), vehicle: saline).

For `Cc1cccc(NC(=O)c2ccc(Cl)cc2Cl)c1C`, the T/C by setting is: under setting [2], 102 % of control; under setting [3], 101 % of control; under setting [4], 91 % of control; under setting [5], 90 % of control; (dose: 400.0 mg/kg/injection, schedule: Q01DX009 (ip), vehicle: Klucel (hydroxypropylcellulose) (HPC)) 91 % of control; (dose: 400.0 mg/kg/injection, schedule: Q04DX003 (ip), vehicle: Klucel (hydroxypropylcellulose) (HPC)) 93 % of control.

`O=C1NC(c2ccc(Cl)cc2)N2C(=O)NC(c3ccc(Cl)cc3)N12` (stereo not given): the T/C (dose: 50.0 mg/kg/injection, schedule: Q04DX002 (ip), vehicle: saline with Tween-80) is 97 % of control; the T/C (dose: 100.0 mg/kg/injection, schedule: Q04DX002 (ip), vehicle: saline with Tween-80) was 94 % of control; the T/C (dose: 200.0 mg/kg/injection, schedule: Q04DX002 (ip), vehicle: saline with Tween-80) is 97 % of control.
